In ChEMBL document CHEMBL1156218, “The development and validation of a novel virtual screening cascade protocol to identify potential serotonin 5-HT(7)R antagonists” (Bioorg Med Chem Lett, 2010):

Key:
[1] = target: T1, 5-hydroxytryptamine receptor 1A (Homo sapiens, UniProt P08908); experiment: Binding affinity at 5HT1A receptor
T1 sequence (P08908 whole entry): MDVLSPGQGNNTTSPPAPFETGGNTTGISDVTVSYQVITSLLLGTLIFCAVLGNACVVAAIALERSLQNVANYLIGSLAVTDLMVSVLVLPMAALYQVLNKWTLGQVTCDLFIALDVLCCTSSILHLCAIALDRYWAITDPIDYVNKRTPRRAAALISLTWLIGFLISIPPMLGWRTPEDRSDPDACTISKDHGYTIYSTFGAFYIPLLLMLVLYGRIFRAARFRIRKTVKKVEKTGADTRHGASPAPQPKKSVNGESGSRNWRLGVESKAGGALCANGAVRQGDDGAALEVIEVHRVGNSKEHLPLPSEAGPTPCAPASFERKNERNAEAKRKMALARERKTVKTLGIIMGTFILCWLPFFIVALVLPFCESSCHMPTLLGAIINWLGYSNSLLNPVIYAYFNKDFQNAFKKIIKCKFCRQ

[2] = target: T2, 5-hydroxytryptamine receptor 7 (Homo sapiens, UniProt P34969); experiment: Displacement of [3H]5CT from 5HT7 receptor at 0.1 uM
T2 sequence (P34969 whole entry): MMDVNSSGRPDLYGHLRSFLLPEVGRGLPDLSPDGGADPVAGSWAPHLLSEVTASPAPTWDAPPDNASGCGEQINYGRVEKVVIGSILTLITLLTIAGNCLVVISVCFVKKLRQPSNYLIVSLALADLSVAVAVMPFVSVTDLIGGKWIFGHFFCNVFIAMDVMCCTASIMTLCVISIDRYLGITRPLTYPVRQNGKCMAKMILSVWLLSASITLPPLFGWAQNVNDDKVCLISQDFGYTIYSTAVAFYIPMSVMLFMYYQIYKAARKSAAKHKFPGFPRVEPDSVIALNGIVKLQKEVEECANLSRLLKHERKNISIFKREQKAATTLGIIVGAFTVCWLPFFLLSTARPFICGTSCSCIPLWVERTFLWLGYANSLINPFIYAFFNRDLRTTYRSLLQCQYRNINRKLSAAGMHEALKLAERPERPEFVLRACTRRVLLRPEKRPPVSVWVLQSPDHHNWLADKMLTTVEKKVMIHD

[3] = target: T2, 5-hydroxytryptamine receptor 7; experiment: Displacement of [3H]5CT from 5HT7 receptor
[4] = target: T2, 5-hydroxytryptamine receptor 7; experiment: Displacement of [3H]5CT from 5HT7 receptor at 1 uM

OC(CNCC1COc2ccccc2O1)COCc1ccccc1Cl (centres undefined)
Ki [1]: 36 nM
Activity [2]: 23%
Ki ([3]; read-out: Ki): 265 nM
Activity [4]: 67%

OC(CNCC1COc2ccccc2O1)COc1ccccc1F (centres undefined)
Ki [1]: 8 nM
Activity [2]: 29%
Ki ([3]; read-out: Ki): 197 nM
Activity [4]: 75%

O=C1Nc2cccc3c2[C@]1(CCCCN1CC=C(c2ccccc2)CC1)CCC3
Ki ([3]; read-out: pKi (converted)): 2.14 nM
